Assay results reported in patent publication US10815222B2, “Compounds for use in the treatment of kinetoplastid infection” (C.N.C.C.S. S.c.a.r.l. COLLEZIONE NAZIONALE DEI COMPOSTI …, priority 2016, dated 2020).

tested on: Bloodstream form of Trypanosoma brucei, strain Lister 427; assay: Trypanosoma brucei growth inhibition assay (CellTiter-Glo, 24 h); type: cell-based; settings: Trypanosoma brucei; T. Brucei Growth Inibition Assay, class symbols; read-out: T. Brucei GI EC50
In short: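 Bloodstream-form T. brucei Lister 427, 1500 parasites per well in supplemented IMDM with 10% FBS, were exposed to compound (DMSO ≤0.25% final) for 24 h at 37 °C. Viability was measured by CellTiter-Glo luminescence.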

Question: With COc1nc2ccccc2cc1-c1cnc(C2CNCCN2C(=O)Cc2c(C)[nH]c3ccc(F)cc23)[nH]1 (centres unmarked) [2-(5-fluoro-2-methyl-1H-indol-3-yl)-1-(2-(5-(2-methoxyquinolin-3-yl)-1H-imidazol-2-yl)piperazin-1-yl)ethan-1-one] as the molecule, how does the EC50 read?
Answer: Its EC50 is 1010 to 5000 nM.

Question: Which EC50 does the source give for COc1nc2ccccc2cc1-c1cnc(C2CS(=O)(=O)CCN2C(=O)Cc2c(C)[nH]c3ccc(F)cc23)[nH]1 (centres unmarked) [2-(5-fluoro-2-methyl-1H-indol-3-yl)-1-(3-(5-(2-methoxyquinolin-3-yl)-1H-imidazol-2-yl)-1,1-dioxidothiomorpholino)ethan-1-one] here?
Answer: Its EC50 is 100 to 500 nM.

Question: How did the EC50 turn out when COc1nc2ccccc2cc1-c1cnc(C2CN([S+]([O-])C(C)C)CCN2C(=O)Cc2c(C)[nH]c3ccc(F)cc23)[nH]1 (centres unmarked) [2-(5-fluoro-2-methyl-1H-indol-3-yl)-1-(4-(isopropylsulfinyl)-2-(5-(2-methoxyquinolin-3-yl)-1H-imidazol-2-yl)piperazin-1-yl)ethan-1-one] was run?
Answer: The EC50 was 1010 to 5000 nM.

Question: For COc1nc2ccccc2cc1-c1cnc(C2CCN(Cc3ccn(C)n3)CCN2C(=O)Cc2c(C)[nH]c3ccc(F)cc23)[nH]1 (centres unmarked) [2-(5-fluoro-2-methyl-1H-indol-3-yl)-1-(7-(5-(2-methoxyquinolin-3-yl)-1H-imidazol-2-yl)-4-((1-methyl-1H-pyrazol-3-yl)methyl)-1,4-diazepan-1-yl)ethan-1-one], which EC50 is on record?
Answer: Its EC50 is less than 100 nM.

Question: COc1ccc2c(c1)nc(C(F)(F)F)n2CC(=O)N1CCN(CC2CCOC2)C[C@H]1c1ncc(-c2cc3ccccc3nc2OC)[nH]1 (stereo partly drawn) [2-(5-methoxy-2-(trifluoromethyl)-1H-benzo[d]imidazol-1-yl)-1-((2S)-2-(5-(2-methoxyquinolin-3-yl)-1H-imidazol-2-yl)-4-((tetrahydrofuran-3-yl)methyl)piperazin-1-yl)ethan-1-one] was tested. Which EC50 did it give?
Answer: The EC50 was less than 100 nM.

Question: Which EC50 does the source give for COc1ccc2[nH]c(C)c(CC(=O)N3CCCN(C)CC3c3ncc(-c4ccc5ccccc5c4)[nH]3)c2c1 (centres unmarked) [2-(5-methoxy-2-methyl-1H-indol-3-yl)-1-(4-methyl-2-(5-(naphthalen-2-yl)-1H-imidazol-2-yl)-1,4-diazepan-1-yl)ethan-1-one] here?
Answer: Its EC50 is 1010 to 5000 nM.

Question: Which EC50 does the source give for COc1ccc2[nH]c(C)c(CC(=O)N3CCN(C)CCC3c3ncc(-c4ccc5ccccc5c4)[nH]3)c2c1 (centres unmarked) [2-(5-methoxy-2-methyl-1H-indol-3-yl)-1-(4-methyl-7-(5-(naphthalen-2-yl)-1H-imidazol-2-yl)-1,4-diazepan-1-yl)ethan-1-one] here?
Answer: The EC50 was 100 to 500 nM.

Question: How did the EC50 turn out when COc1ccc2[nH]c(C)c(CC(=O)N3CCN(Cc4ccn(C)n4)CCC3c3ncc(-c4cc5ccccc5nc4OC)[nH]3)c2c1 (centres unmarked) [2-(5-methoxy-2-methyl-1H-indol-3-yl)-1-(7-(5-(2-methoxyquinolin-3-yl)-1H-imidazol-2-yl)-4-((1-methyl-1H-pyrazol-3-yl)methyl)-1,4-diazepan-1-yl)ethan-1-one] was run?
Answer: The EC50 was less than 100 nM.

Question: Which EC50 does the source give for COc1ccc2nc(C(F)(F)F)n(CC(=O)N3CCCCC3c3ncc(-c4cc5ccccc5nc4OC)[nH]3)c2c1 (centres unmarked) [2-(6-methoxy-2-(trifluoromethyl)-1H-benzo[d]imidazol-1-yl)-1-(2-(5-(2-methoxyquinolin-3-yl)-1H-imidazol-2-yl)piperidin-1-yl)ethan-1-one] here?
Answer: Its EC50 is less than 100 nM.

Question: For COc1ccc2nc(C(F)(F)F)n(CC(=O)N3CCS(=O)(=O)CC3c3ncc(-c4cc5ccccc5nc4OC)[nH]3)c2c1 (centres unmarked) [2-(6-methoxy-2-(trifluoromethyl)-1H-benzo[d]imidazol-1-yl)-1-(3-(5-(2-methoxyquinolin-3-yl)-1H-imidazol-2-yl)-1,1-dioxidothiomorpholino)ethan-1-one], which EC50 is on record?
Answer: The EC50 was 100 to 500 nM.

Question: Which EC50 does the source give for COc1ccc2nc(C(F)(F)F)n(CC(=O)N3CCN(CCc4ccnn4C)CCC3c3ncc(-c4cc5ccccc5nc4OC)[nH]3)c2c1 (centres unmarked) [2-(6-methoxy-2-(trifluoromethyl)-1H-benzo[d]imidazol-1-yl)-1-(7-(5-(2-methoxyquinolin-3-yl)-1H-imidazol-2-yl)-4-(2-(1-methyl-1H-pyrazol-5-yl)ethyl)-1,4-diazepan-1-yl)ethan-1-one] here?
Answer: The EC50 was less than 100 nM.
